In US8137509B2, “Asymmetric synthesis of rocaglamides via enantioselective photocycloaddition mediated by chiral brønsted acids” (Trustees of Boston University, priority 2006, dated 2012):

Tests used:
human cancer cells = details: compared with TAXOL; cited from earlier work

SMILES	melting point	cytotoxic activity (human cancer cells)
COC(=O)C1C(c2ccccc2)[C@]2(c3ccc(OC)cc3)Oc3cc(OC)cc(OC)c3[C@@]1(O)C2=O (some centres unmarked)	83 to 85 °C	–
COC(=O)[C@H]1[C@@H](O)[C@@]2(O)c3c(OC)cc(O[C@@H]4O[C@@H]([C@H](O)CO)CO[C@H]4OC)cc3O[C@@]2(c2ccc(OC)cc2)[C@@H]1c1ccccc1 [silvestrol B, silvestrol]	–	comparable to the anticancer drug TAXOL®
